Reference: PMC6711031, “Discovery of new butyrylcholinesterase inhibitors via structure-based virtual screening” (Journal of Enzyme Inhibition and Medicinal Chemistry, 2019)
Read-outs that look alike come from different tables or passages of the source.

Target: T1, BChE from equine serum (Equus caballus, UniProt P81908)
T1 construct: BChE from equine serum (Sigma); purchased Sigma; host or cells: equine serum
Assay: biochemical
Conditions: eqBChE 0.22 U/mL, Tris-HCl pH 8.0, 20 min preincubation at 37 °C, butyrylthiocholine iodide 0.5 mM, read at 412 nm
Method: Selected hits were obtained from NCI and they were provided as dry powders in variable quantities (5–10 mg). […] Subsequently, they were diluted to the required concentrations with Tris buffer pH 8.0 for the assay. Enzymatic inhibition assays were performed on BChE from equine serum (Sigma), according to the spectrophotometric Ellman's method. The experiment was performed in 48-well plates in a final volume of 100 µL. Each well contained 0.22 U/mL eqBChE dissolved in Tris–HCl buffer, pH 8.0. They were preincubated for 20 min at different compound concentrations at 37 °C. Then 0.5 mM butyrylthiocholine iodide (Sigma) and 0.35 mM 5,5′-dithiobis -2-nitrobenzoico (DTNB; Sigma) were added. Colour development was measured spectrophotometrically at 412 nm using microplate reader (BioTek ELx800) at a rate of one measurement per minute over 15 min period. […] All samples were assayed in at least duplicate measurements. In general, the amount of DMSO was kept below 1% in the assay. IC50 values were determined graphically from inhibition curves using Graph Pad prism version 6, Graph Pad Software, Inc..

T1 sequence (P81908 whole entry): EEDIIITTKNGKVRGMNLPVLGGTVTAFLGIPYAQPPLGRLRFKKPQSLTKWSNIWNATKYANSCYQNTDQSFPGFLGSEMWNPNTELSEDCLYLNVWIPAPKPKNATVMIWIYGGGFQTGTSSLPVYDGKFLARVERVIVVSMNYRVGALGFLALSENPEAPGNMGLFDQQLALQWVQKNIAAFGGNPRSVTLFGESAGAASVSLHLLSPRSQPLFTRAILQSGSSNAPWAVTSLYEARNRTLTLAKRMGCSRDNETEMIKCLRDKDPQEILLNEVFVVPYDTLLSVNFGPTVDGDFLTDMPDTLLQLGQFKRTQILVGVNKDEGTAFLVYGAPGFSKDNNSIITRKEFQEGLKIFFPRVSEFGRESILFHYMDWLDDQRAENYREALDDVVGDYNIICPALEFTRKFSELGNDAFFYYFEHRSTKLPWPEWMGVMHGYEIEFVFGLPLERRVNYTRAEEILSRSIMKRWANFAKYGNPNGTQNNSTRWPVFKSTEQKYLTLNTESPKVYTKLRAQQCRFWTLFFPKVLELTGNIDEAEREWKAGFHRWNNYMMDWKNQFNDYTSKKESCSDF

| SMILES | IC50 (read-out: IC50 value) [µM] | IC50 (IC50 value) [µM] |
| --- | --- | --- |
| O=C1CC2COc3ccc(OCCN4CCCC4)cc3C2=NN1c1ccccc1 (stereo not drawn) [Compound 4, 2-phenyl-9–(2-(pyrrolidin-1-yl)ethoxy)-4a,5-dihydro-2H-chromeno[4,3-c]pyridazin-3(4H)-one] | 8.3 ± 0.07 | – |
| OC(c1ccccc1)C(NCCNCc1ccccc1)c1ccccc1 (stereo not drawn) [Compound 12, 2-[2-(benzylamino)ethylamino]-1,2-diphenylethanol] | 22.2 ± 0.12 | – |
| NCCC1CCc2[nH]c3ccccc3c2C1 (stereo not drawn) [Compound 26, 2–(2,3,4,9-tetrahydro-1H-carbazol-3-yl)ethanamine] | – | 39.7 ± 0.16 |
